Test results reported in patent publication US20040241818A1, “Assay” (priority 2000, published 2004).
Where two headings read alike, the source gives them in different places.

Target: T1, truncated Itk (Homo sapiens, UniProt Q08881)
T1 construct: fused on or other part: added start methionine
T1 sequence (Q08881 171-615 limits assumed): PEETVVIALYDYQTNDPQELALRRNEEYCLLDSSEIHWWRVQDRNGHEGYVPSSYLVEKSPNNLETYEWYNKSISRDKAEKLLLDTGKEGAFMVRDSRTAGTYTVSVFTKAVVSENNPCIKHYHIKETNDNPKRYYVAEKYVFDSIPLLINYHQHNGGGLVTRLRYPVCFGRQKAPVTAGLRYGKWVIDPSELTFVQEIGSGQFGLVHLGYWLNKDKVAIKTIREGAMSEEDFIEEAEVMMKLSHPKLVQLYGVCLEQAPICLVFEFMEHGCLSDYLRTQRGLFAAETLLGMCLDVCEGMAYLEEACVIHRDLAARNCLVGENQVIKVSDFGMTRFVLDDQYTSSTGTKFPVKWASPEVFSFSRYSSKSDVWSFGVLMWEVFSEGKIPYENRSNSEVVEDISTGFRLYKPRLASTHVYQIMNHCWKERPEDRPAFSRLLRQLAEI
Assay: Truncated Itk kinase assay (HTRF)
Type: biochemical
Details: UK:ITK, 0.05 mM ATP, 15 min pre-incubation
Experimental: The 100 000 g supernatant was stored at −85° C. Stored lysates were thawed on ice, ATP and MgCl2 (0.1 mM and 10 mM) were added. Following incubation on ice the kinase was diluted in 40 mM HEPES (pH 7.4). The kinase reaction mixture contained 40 mM HEPES (pH 7.4). 10 mM MgCl2, 0.05 mM ATP, 0.0005 mM peptide (Biotin-[…]). The reaction was stopped by the addition of EDTA (25 mM). […] An increase in the level of fluorescence indicates an increase in kinase activity.
Compound Testing in Kinase Assay
Substrates (ATP, src-peptide) added
Reaction stopped with EDTA
HTRF reagents (APC, Eu labelled antibody (antiPY antibody)) added
Read signal on plate reader

[1] = PIC50 is -log10 IC50 in molar, read-out: Average PIC50 (converted)

Compound | IC50 (read-out: Average IC50) | IC50 [1]
CNc1ccc(-c2cc(=O)c3c(O)cc(O)cc3o2)cc1 | 813 nM | 813 nM
O=c1c(O)c(-c2cc(O)c(O)c(O)c2)oc2cc(O)cc(O)c12 | 1660 nM | 1660 nM
